Measured values from patent US8546395B2, “6-cycloamino-3-(1H-pyrrolo[2,3-b]pyridin-4-yl)imidazo[1,2-b]pyridazine derivatives, preparation thereof and therapeutic use thereof” (Sanofi, priority 2008, dated 2013).

Legend:
human CK1 delta = target: T1, human CK1 delta (Homo sapiens, UniProt P48730); experiment: FRET fluorescence test (Z'Lyte kinase assay Kit), peptide substrate SER/THR 11; format: biochemical; details: peptide substrate 2 μM, ATP at 4 times the KM
T1 construct: purchased Invitrogen Corporation PV3665
Excerpt: The capacity of the compounds of the invention to inhibit the phosphorylation of casein by casein kinase 1 epsilon and delta may be evaluated using a FRET (“Fluorescence Resonance Energy Transfer) fluorescence test with the aid of the “Z'Lyte™ kinase assay Kit” (reference PV3670; Invitrogen Corporation™) according to the manufacturer's instructions.
The casein kinases 1 used are obtained from Invitrogen Corporation (human CK1 epsilon PV3500 and human CK1 delta PV3665).
A peptide substrate, labelled at both ends with a fluorophor donor group (coumarin) and a fluorophor acceptor group (fluorescein) constituting a FRET system is phosphorylated in the presence of ATP by casein kinase 1 epsilon or delta in the presence of increasing concentrations of compounds of the invention.
The mixture is treated with a site-specific protease that specifically cleaves the peptide substrate to form two fluorescent fragments having a large fluorescence emission ratio.
The fluorescence observed is thus related to the capacity of the products of the invention to inhibit the phosphorylation of the peptide substrate by casein kinase 1 epsilon or casein kinase 1 delta.
The compounds of the invention are dissolved at different concentrations starting with a 10 mM stock solution in DMSO diluted in a buffer containing 50 mM HEPS, pH 7.5, 1 m MEGTA, 0.01% Brij-35, 10 mM MgCl2 for casein kinase 1 epsilon and supplemented with Trizma Base (50 mM), pH 8.0, and NaN3 (0.01% final) for casein kinase 1 delta.
The phosphorylation of the peptide substrate SER/THR 11 obtained from Invitrogen Corporation™ is performed at a final concentration of 2 μM. The ATP concentration is 4 times the KM, this value being 2 μM for casein kinase 1 epsilon and 4 μM for casein kinase 1 delta.
The emitted fluorescence is measured at wavelengths of 445 and 520 nm (excitation at 400 nm).

[1] = system: Mper1-luc Rat-1 (P2C4) fibroblasts; experiment: Circadian cell assay (mPer1-luciferase reporter, period prolongation); format: cell-based; details: effective concentration that induced a 1-hour prolongation of the circadian period, interpolated from hyperbolic curve
Protocol: Experimental Protocols for Circadian Cell Assay
Mper1-luc Rat-1 (P2C4) fibroblast cultures were prepared by dividing the cultures every 3-4 days (approximately 10-20% of confluence) on 150 cm^2 degassed polystyrene tissue culture flasks (Falcon® #35-5001) and maintained in growth medium [EMEM (Celigro #10-010-CV); 10% foetal bovine serum (FBS; Gibco #16000-044); and 50 I.U./ml of penicillin-streptomycin (Celigro #30-001-CI)] at 37° C. and under 5% CO2.
Cells obtained from Rat-1 fibroblast cultures at 30-50% of confluence as described above were co-transfected with vectors containing the selection marker for resistance to zeocin for a stable transfection and a luciferase reporter gene controlled by the mPer-1 promoter. After 24 to 48 hours, the cultures were divided on 96-well plates and maintained in growth medium supplemented with 50-100 μg/ml of zeocin (Invitrogen® #45-0430) for 10-14 days. The zeocin-resistant stable transfectants were evaluated for the expression of the reporter by adding 100 μM luciferin (Promega® #E1603®) to the growth medium and by assaying the luciferase activity on a TopCount scintillation counter (Packard Model #C384V00). The Rat-1 cell clones expressing both zeocin resistance and lucerifase activity controlled by mPer1 were serum-shock synchronized with 50% horse serum [HS (Gibco® #16050-122)] and the activity of the circadian reporter was evaluated. The P2C4 clone of Mper1-luc Rat-1 fibroblasts was selected to test the compound. Mper1-luc Rat-1 ([…]) fibroblasts at 40-50% of confluence, obtained according to the protocol described above, were plated out onto 96-well opaque tissue culture plates (Perkin Elmer® #6005680). […]
The period analysis was performed either by determining the interval between the relative light emission minima over several days or by Fourier transform. […] The data were analysed by adjusting a hyperbolic curve to the data expressed as change of period (y-axis) as a function of the concentration of the test compound (x-axis) in the XLfit™ software and the CE Delta (t+1 h) was interpolated from this curve.

[2] = target: T2, casein kinase 1 epsilon (CK1 epsilon) (Homo sapiens, UniProt P49674); experiment: Filter-plate assay of ATP-33P for CK1 epsilon inhibitors (phosphorylation of casein); format: biochemical; details: casein substrate, ATP-33P with 10 μM cold ATP, 2 hours at ambient temperature
T2 construct: Invitrogen Corporation (as an alternative)
Protocol: The capacity of the compounds of the invention to inhibit the phosphorylation of casein by casein kinase 1 epsilon and delta may be evaluated according to the procedure described in US 2005/0131012.
Filter-Plate Assay of ATP-^33P for the Screening of CK1 Epsilon Inhibitors:
The effect of the compounds on inhibition of the phosphorylation of casein by the enzyme casein kinase 1 epsilon (CK1 epsilon) is measured, using a casein assay with filtration of ATP-^33P in vitro.
Casein kinase 1 epsilon (0.58 mg/ml) is obtained via fermentation and purification processes performed according to methods that are well known to those skilled in the art, or may also be obtained from Invitrogen Corporation™ (human CK1 epsilon).
The compounds are tested at five different concentrations so as to generate IC50 values, i.e. the concentration at which a compound is capable of inhibiting the enzymatic activity by 50%, or alternatively the percentage of inhibition at a concentration of 10 micromolar.
“U”-bottomed Falcon plates are prepared by placing 5 μL of solutions of the compounds according to the invention at concentrations of 10, 1, 0.1, 0.01 or 0.001 μM in various wells. The solutions of the compounds according to the invention at these various concentrations are prepared by diluting in a test buffer (50 mM Tris, pH 7.5, […], 2 mM DTT and 1 mM EGTA) a stock solution in DMSO at a concentration of 10 mM. Next, 5 μL of dephosphorylated casein are added to a final concentration of 0.2 μg/μL, 20 μl of CK1 epsilon to a final concentration of 3 ng/μl, and 20 μl of ATP-^33P to a final concentration of 0.02 μCi/μl mixed with cold ATP (10 μM final—approximately 2×10^6 CPM per well). The final total test volume per well is equal to 50 μl.
The “U”-bottomed Falcon® test plate mentioned above is vortexed, and then incubated at ambient temperature for 2 hours. After 2 hours, the reaction is stopped by adding an ice-cold solution of 65 μl of ATP (2 mM) prepared in test buffer.
100 μl of the reaction mixture are then transferred from the “U”-bottomed Falcon® plate into Millipore® MAPH filter plates, preimpregnated with 25 μl of ice-cold 100% TCA. […]
The plates are left to dry overnight at ambient temperature. […] The radiation emitted by each well is then measured for 2 minutes in a Packard® Topcount NXT scintillation counter, in which the values of CPM/well are measured.
The percentage inhibition of the capacity of the enzyme to phosphorylate the substrate (casein) is determined for each concentration of compound tested. These inhibition data expressed as percentages are used to calculate the IC50 value for each compound compared with the controls.
The kinetic studies determined the KM value for ATP as being 21 μM in this test system.

T1 sequence (P48730 whole entry): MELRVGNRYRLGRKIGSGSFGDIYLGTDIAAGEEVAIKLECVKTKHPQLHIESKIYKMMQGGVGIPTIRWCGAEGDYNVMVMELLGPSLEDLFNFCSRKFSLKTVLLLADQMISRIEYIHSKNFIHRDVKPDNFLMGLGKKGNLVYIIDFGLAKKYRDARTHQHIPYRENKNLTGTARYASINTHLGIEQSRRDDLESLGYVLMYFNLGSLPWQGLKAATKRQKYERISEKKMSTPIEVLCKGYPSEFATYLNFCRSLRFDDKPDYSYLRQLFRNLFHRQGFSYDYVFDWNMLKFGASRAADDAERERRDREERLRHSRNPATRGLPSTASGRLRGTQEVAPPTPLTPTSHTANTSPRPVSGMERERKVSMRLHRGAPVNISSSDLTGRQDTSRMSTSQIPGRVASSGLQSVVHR
T2 sequence (P49674 whole entry): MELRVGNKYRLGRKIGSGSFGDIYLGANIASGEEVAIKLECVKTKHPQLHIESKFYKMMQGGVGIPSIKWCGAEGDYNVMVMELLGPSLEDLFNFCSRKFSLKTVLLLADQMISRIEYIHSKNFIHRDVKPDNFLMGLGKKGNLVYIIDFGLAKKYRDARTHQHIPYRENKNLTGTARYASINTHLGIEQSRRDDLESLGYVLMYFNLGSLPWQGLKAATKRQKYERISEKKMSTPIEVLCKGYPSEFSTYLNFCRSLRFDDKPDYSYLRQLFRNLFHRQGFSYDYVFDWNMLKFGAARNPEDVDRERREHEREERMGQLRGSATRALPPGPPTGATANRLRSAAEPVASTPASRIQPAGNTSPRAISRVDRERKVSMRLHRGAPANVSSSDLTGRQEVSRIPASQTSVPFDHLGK

| IC50 (human CK1 delta) [nM] | IC50 [2] [nM] | melting point [°C] | SMILES | CE Delta (t + 1 h) [1] [nM] |
| --- | --- | --- | --- | --- |
| 5 | – | – | Cc1cc(N2C[C@H]3CN(C)C[C@H]3C2)nn2c(-c3ccnc4[nH]ccc34)c(-c3ccc(F)cc3)nc12 [Compound 29, (Cis)-2-(4-fluorophenyl)-8-methyl-6-(5-methyl-hexahydropyrrolo[3,4-c]pyrrol-2(1H)-yl)-3-(1H-pyrrolo[2,3-b]pyridin-4-yl)imidazo[1,2-b]pyridazine] | – |
| – | 6 | – | Fc1ccc(-c2nc3ccc(N4CCC5(CCCNC5)CC4)nn3c2-c2ccnc3[nH]ccc23)cc1 [Compound 35, 9-[2-(4-Fluorophenyl)-3-(1H-pyrrolo[2,3-b]pyridin-4-yl)imidazo[1,2-b]pyridazin-6-yl]-2,9-diazaspiro[5.5]undecane] | 305 |
| 30 to 42 | – | 273 to 276 | CC(C)(O)CN1CCN(c2ccc3nc(-c4ccc(F)cc4)c(-c4ccnc5[nH]ccc45)n3n2)CC1 [Compound 20, 1-{4-[2-(4-Fluorophenyl)-3-(1H-pyrrolo[2,3-b]pyridin-4-yl)imidazo[1,2-b]pyridazin-6-yl]piperazin-1-yl}-2-methylpropan-2-ol] | – |
| – | 1 to 2 | 285 to 287 | C[C@@H]1CN(c2ccc3nc(-c4ccc(F)cc4)c(-c4ccnc5[nH]ccc45)n3n2)CCN1 [Compound 6, 2-(4-Fluorophenyl)-6-[(3R)-3-methylpiperazin-1-yl]-3-(1H-pyrrolo[2,3-b]pyridin-4-yl)imidazo[1,2-b]pyridazine] | 2 to 3 |
